Values joined by “and” are separate entries in the source; they are usually repeats but may differ in a detail not shown here. Equal values may be shown once. Read-outs that look alike come from different tables or passages of the source.
Assays:
in vitro = conditions: dog
A/WSN/33(H1N1) virus = experiment: microbe, parasite or virus in culture; type: cell-based, influenza A virus; conditions: for inhibition at 100 µM: read-out: %-inhibition in viral yield reduction assay screening; for EC50: read-out: EC50 viral yield assay
H1 polymerase = H1 polymerase (Influenza A virus, UniProt P15659); experiment: cell-based; parameters: species or system A/WSN/33(H1N1); conditions: EC50 minigenome luciferase reporter assay
[1] = tested on: H5 PA-PB1 heterodimeric complex; type: biochemical, influenza A virus
B/Florida/04/2006 = experiment: microbe, parasite or virus in culture; type: cell-based; conditions: Influenza B virus, read-out: EC50 viral yield reduction assay
A/HK/1/68(H3N2) = experiment: microbe, parasite or virus in culture; type: cell-based; conditions: Influenza A virus, H3N2, read-out: EC50 viral yield reduction assay
[2] = tested on: A/California/7/09(H1N1pdm); experiment: microbe, parasite or virus in culture; type: cell-based; conditions: Influenza A virus, read-out: EC50 viral yield reduction assay
[3] = Influenza A virus, H1N1|WSN, MDCK

Compound	CC50 (in vitro) [µM]	inhibition at 100 µM (A/WSN/33(H1N1) virus; [3]) [%]	further results
O=C(/C=C/c1ccc(Cl)cc1)NCc1cccc2cn[nH]c12 [Compound 10, (E)-N-[(1H-Indazol-7-yl)methyl]-3-(4-chlorophenyl)acrylamide]	> 100	< 2	
O=C(/C=C/c1ccc(F)cc1)NCc1cccc2cn[nH]c12 [Compound 13, (E)-N-[(1H-Indazol-7-yl)methyl]-3-(4-fluorophenyl)acrylamide]	> 100	30.5	
S=C(NCc1cccc2cn[nH]c12)Nc1ccc(I)cc1 [Compound 25, 1-[(1H-Indazol-7-yl)methyl]-3-(4-iodophenyl)thiourea]	> 100	74.4	
S=C(NCc1cccc2cn[nH]c12)Nc1cccc(Cl)c1 [Compound 21, 1-[(1H-Indazol-7-yl)methyl]-3-(3-chlorophenyl)thiourea]	> 25	37.5	
FC(F)(F)c1ccc(NC(=S)NCc2cccc3cn[nH]c23)cc1 [Compound 27, 1-[(1H-Indazol-7-yl)methyl]-3-[4-(trifluoromethyl)phenyl]thiourea]	> 100	> 90	%-inhibition in viral yield reduction assay screening (A/WSN/33(H1N1) virus): 94.9%; selectivity index (CC50/EC50) (A/WSN/33(H1N1) virus): > 12.5; EC50 (A/WSN/33(H1N1) virus; [3]): 8.03 µM; EC50 (A/WSN/33(H1N1) virus): 8.03 µM
Cc1ccc(NC(=S)NCc2cccc3cn[nH]c23)cc1 [Compound 20, 1-[(1H-Indazol-7-yl)methyl]-3-(p-tolyl)thiourea]	> 100	< 2	
O=C(/C=C/c1ccco1)NCc1cccc2cn[nH]c12 [Compound 17, (E)-N-[(1H-Indazol-7-yl)methyl]-3-(furan-2-yl)acrylamide]	> 100	33.9	
Cc1ccc(NCC(=O)Nc2ccccc2C(=O)NCc2cccc3cn[nH]c23)cc1 [Compound 2, N-[(1H-Indazol-7-yl)methyl]-2-[2-(p-tolylamino)acetamido]benzamide]	> 100	10.2	
O=C(CN1CCSCC1)Nc1ccccc1C(=O)NCc1cccc2cn[nH]c12 [Compound 5, N-[(1H-Indazol-7-yl)methyl]-2-[2-(thiomorpholin-4-yl)acetamido]benzamide]	> 100	< 2	
COC(=O)OCOc1c2n(ccc1=O)N([C@@H]1c3ccccc3SCc3c1ccc(F)c3F)[C@@H]1COCCN1C2=O [baloxavir marboxil, reference compound]			EC50 (A/WSN/33(H1N1) virus): 0.00095 µM
S=C(NCc1cccc2cn[nH]c12)Nc1ccc(Br)cc1 [Compound 30, 1-[(1H-Indazol-7-yl)methyl]-3-(4-bromophenyl)thiourea]	> 100	< 2	
NC(=O)c1nc(F)c[nH]c1=O [favipiravir, reference compound]			EC50 (H1 polymerase): 0.441 µM; EC50 (A/WSN/33(H1N1) virus): 1.57 µM
S=C(NCc1ccccc1)NCc1cccc2cn[nH]c12 [Compound 28, 1-[(1H-Indazol-7-yl)methyl]-3-benzylthiourea]	> 100	< 2	
Fc1ccc(NC(=S)NCc2cccc3cn[nH]c23)cc1 [Compound 29, 1-[(1H-Indazol-7-yl)methyl]-3-(4-fluorophenyl)thiourea]	> 100	< 2	
Cc1cccc(NCC(=O)Nc2ccccc2C(=O)NCc2cccc3cn[nH]c23)c1 [Compound 3, N-[(1H-Indazol-7-yl)methyl]-2-[2-(m-tolylamino)acetamido]benzamide]	> 100	18.6	
O=C(/C=C/c1ccc(C(F)(F)F)cc1)NCc1cccc2cn[nH]c12 [Compound 11, (E)-N-[(1H-Indazol-7-yl)methyl]-3-[4-(trifluoromethyl)phenyl]acrylamide]	> 100	< 2	
O=C(/C=C/c1ccncc1)NCc1cccc2cn[nH]c12 [Compound 16, (E)-N-[(1H-Indazol-7-yl)methyl]-3-(pyridin-4-yl)acrylamide]	> 100	48.2	

Compound	CC50 (in vitro) [µM]	inhibition at 100 µM (A/WSN/33(H1N1) virus; [3]) [%]	further results
S=C(NCc1cccc2cn[nH]c12)Nc1cccc(Cl)c1Cl [Compound 23, 1-[(1H-Indazol-7-yl)methyl]-3-(2,3-dichlorophenyl)thiourea]	> 100	< 2	
N#Cc1ccc(NC(=S)NCc2cccc3cn[nH]c23)cc1 [Compound 31, 1-[(1H-indazol-7-yl)methyl]-3-(4-cyanophenyl)thiourea]	> 25	> 90	%-inhibition in viral yield reduction assay screening (A/WSN/33(H1N1) virus): 99.9%; selectivity index (CC50/EC50) (A/WSN/33(H1N1) virus): > 1.73; EC50 (A/WSN/33(H1N1) virus; [3]): 14.6 µM; EC50 (A/WSN/33(H1N1) virus): 14.6 µM
O=C(/C=C/c1ccc(F)c(F)c1)NCc1cccc2cn[nH]c12 [Compound 15, (E)-N-[(1H-Indazol-7-yl)methyl]-3-(3,4-difluorophenyl)acrylamide]	> 100	44.1	
O=C(CNc1ccc(Cl)cc1)Nc1ccccc1C(=O)NCc1cccc2cn[nH]c12 [Compound 6, N-[(1H-Indazol-7-yl)methyl]-2-{2-[(4-chlorophenyl)amino]acetamido}benzamide]	> 100	< 2	
S=C(NCc1cccc2cn[nH]c12)Nc1ccccc1 [Compound 19, 1-[(1H-Indazol-7-yl)methyl]-3-phenylthiourea]	> 100	25	
O=C(CN1CCOCC1)Nc1ccccc1C(=O)NCc1cccc2cn[nH]c12 [Compound 8, N-[(1H-Indazol-7-yl)methyl]-2-(2-morpholinoacetamido)benzamide]	> 100	< 2	
COc1ccc(/C=C/C(=O)NCc2cccc3cn[nH]c23)cc1 [Compound 14, (E)-N-[(1H-Indazol-7-yl)methyl]-3-(4-methoxyphenyl)acrylamide]	> 100	48.4	
Cc1ccccc1NCC(=O)Nc1ccccc1C(=O)NCc1cccc2cn[nH]c12 [Compound 1, N-[(1H-Indazol-7-yl)methyl]-2-[2-(o-tolylamino)acetamido]benzamide]	> 100	25	
FC(F)(F)Oc1ccc(NC(=S)NCc2cccc3cn[nH]c23)cc1 [Compound 26, 1-[(1H-Indazol-7-yl)methyl]-3-[4-(trifluoromethoxy)phenyl]thiourea]	> 100	< 2	
O=C(CNCc1ccccc1)Nc1ccccc1C(=O)NCc1cccc2cn[nH]c12 [Compound 7, N-[(1H-Indazol-7-yl)methyl]-2-[2-(benzylamino)acetamido]benzamide]	> 50	< 2	
O=C(CNC1CCCCC1)Nc1ccccc1C(=O)NCc1cccc2cn[nH]c12 [Compound 4, N-[(1H-Indazol-7-yl)methyl]-2-[2-(cyclohexylamino)acetamido]benzamide]	> 100	< 2	
O=C(/C=C/c1cccs1)NCc1cccc2cn[nH]c12 [Compound 18, (E)-N-[(1H-Indazol-7-yl)methyl]-3-(thiophen-2-yl)acrylamide]	> 100	< 2	
COc1ccc(NC(=S)NCc2cccc3cn[nH]c23)cc1OC [Compound 24, 1-[(1H-Indazol-7-yl)methyl]-3-(3,4-dimethoxyphenyl)thiourea]	> 100	> 90	PA-PB1 complex co-immunoprecipitated compared to DMSO control [1]: 64.5% ± 6.2% and 64.5%; EC50 (B/Florida/04/2006): 0.23 µM; %-inhibition in viral yield reduction assay screening (A/WSN/33(H1N1) virus): 99.9%; EC50 (A/HK/1/68(H3N2)): 0.54 µM; EC50 [2]: 0.746 µM
S=C(NCc1cccc2cn[nH]c12)Nc1ccc(Cl)cc1 [Compound 22, 1-[(1H-Indazol-7-yl)methyl]-3-(4-chlorophenyl)thiourea]	> 100	16.9	
O=C(/C=C/c1ccc([N+](=O)[O-])cc1)NCc1cccc2cn[nH]c12 [Compound 12, (E)-N-[(1H-Indazol-7-yl)methyl]-3-(4-nitrophenyl)acrylamide]	> 100	37.3	
O=C(/C=C/c1ccc(Br)cc1)NCc1cccc2cn[nH]c12 [Compound 9, (E)-N-[(1H-Indazol-7-yl)methyl]-3-(4-bromophenyl)acrylamide]	> 100	< 2	

From publication PMC12254823 (Acta Pharmaceutica Sinica. B, 2025)
